Measured values from the supplement of paper PMC10307832.

Assays:
Experiment in all cases: relative viability (nuclei count vs DMSO), 5 days (fraction); higher = more cells survive
[1] = compound: OCc1c[nH]c2ccccc12 [Indole-3-carbinol] + CC(C)C[C@H](NC(=O)[C@H](Cc1ccccc1)NC(=O)c1cnccn1)B(O)O [Bortezomib] (partner 0.002 µM)
Method in brief: (§1)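 Lung cancer cell lines in 1536-well plates got either a single drug or a fixed anchor-drug dose together with five library-drug doses (not always all listed) in √10 steps, by pin tool, on the day after seeding. Nuclei were counted after 5 days, and relative viability is the treated-to-vehicle ratio of nuclei counts. Values are medians of duplicate plates.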

[2] = compound: OCc1c[nH]c2ccccc12 [Indole-3-carbinol] + NC(=O)Nc1cc(-c2cccc(F)c2)sc1C(=O)N[C@H]1CCCNC1 [AZD7762] (partner 0.2 µM)
Method in brief: as §1

[3] = compound: OCc1c[nH]c2ccccc12 [Indole-3-carbinol] + Nc1ncn([C@H]2C[C@H](O)[C@@H](CO)O2)c(=O)n1 [Decitabine] (partner 2 µM)
Method in brief: as §1

[4] = compound: OCc1c[nH]c2ccccc12 [Indole-3-carbinol] + C[C@]1(O)C[C@@H](c2nc(-c3ccc4ccc(-c5ccccc5)nc4c3)c3c(N)nccn32)C1 [Linsitinib] (partner 1 µM)
Method in brief: as §1

[5] = compound: OCc1c[nH]c2ccccc12 [Indole-3-carbinol] + N=C(N)NC(=N)NCCc1ccccc1 [Phenformin] (partner 250 µM)
Method in brief: as §1

Row | Cell Line | relative viability ([1]; first compound 0.253 µM) | relative viability ([1]; first compound 0.8 µM) | relative viability ([1]; first compound 2.53 µM) | relative viability ([1]; first compound 8 µM) | relative viability ([2]; first compound 0.253 µM) | relative viability ([2]; first compound 0.8 µM) | relative viability ([2]; first compound 2.53 µM) | relative viability ([2]; first compound 8 µM) | relative viability ([3]; first compound 0.253 µM) | relative viability ([3]; first compound 0.8 µM) | relative viability ([3]; first compound 2.53 µM) | relative viability ([3]; first compound 8 µM) | relative viability ([4]; first compound 0.253 µM) | relative viability ([4]; first compound 0.8 µM) | relative viability ([4]; first compound 2.53 µM) | relative viability ([4]; first compound 8 µM) | relative viability ([5]; first compound 0.253 µM) | relative viability ([5]; first compound 0.8 µM) | relative viability ([5]; first compound 2.53 µM) | relative viability ([5]; first compound 8 µM)
1 | NCI-H2087 | 0.815 | 0.967 | 0.963 | 0.678 | 1.31 | 1.46 | 1.33 | 1.15 | 0.278 | 0.323 | 0.255 | 0.341 | 1.07 | 1.04 | 1.01 | 0.915 | 0.45 | 0.525 | 0.466 | 0.386
2 | NCI-H2126 | 1.11 | 1.11 | 1.1 | 1.1 | 0.999 | 1.08 | 1.02 | 1.01 | 0.6 | 0.601 | 0.547 | 0.54 | 0.694 | 0.715 | 0.68 | 0.702 | 0.51 | 0.518 | 0.525 | 0.512
3 | NCI-H2347 | 1.2 | – | 0.926 | 0.868 | 0.936 | 0.676 | 0.702 | 0.765 | 0.678 | 0.58 | 0.509 | 0.574 | 0.986 | 1.06 | 1.04 | 0.793 | 0.405 | 0.34 | 0.496 | 0.435
4 | NCI-H2405 | 0.985 | 0.983 | 1 | 0.963 | 0.839 | 0.727 | 0.755 | 0.659 | 0.829 | 0.711 | 0.852 | 0.635 | 0.945 | 0.805 | 0.903 | 0.89 | 0.426 | 0.376 | 0.391 | 0.44
5 | NCI-H3122 | 1.01 | 1.04 | 1.07 | 1.04 | 1.1 | 1 | 1.07 | 0.899 | 0.462 | 0.414 | 0.37 | 0.451 | 1.02 | 1.03 | 1.07 | 1.04 | 0.391 | 0.364 | 0.413 | 0.381
6 | PC-3 [JPC-3] | 0.851 | 0.89 | 0.863 | 0.741 | 0.723 | 0.925 | 0.765 | 0.91 | 0.868 | 0.832 | 0.91 | 0.809 | 0.948 | 0.985 | 0.922 | 0.887 | 0.477 | 0.483 | 0.483 | 0.473
7 | PC-14 | 0.878 | 0.971 | 0.85 | 0.874 | 0.342 | 0.315 | 0.331 | 0.327 | 0.201 | 0.196 | 0.276 | 0.23 | 0.943 | 0.882 | 0.891 | 0.903 | 0.586 | 0.536 | 0.582 | 0.5
8 | RERF-LC-KJ | 1.19 | 1.08 | 1.13 | 1.04 | 1.07 | 1.01 | 0.962 | 0.885 | 0.741 | 0.69 | 0.716 | 0.62 | 0.961 | 0.943 | 0.868 | 0.825 | 0.392 | 0.415 | 0.428 | 0.401
